In patent publication US4609667A, “Inhibitor of mammalian collagenase and elastase” (American Home Products Corporation, priority 1985, dated 1986):

How the values were obtained:
Format in all cases: biochemical
[1] = target: T1, human leukocyte elastase (Homo sapiens, UniProt P08246); assay: human elastase inhibition in vitro assay, Method 2 (elastin-Congo red complex); conditions: 20 μg of compound; 37° C., 18 hours; Standard (complete hydrolysis by hog pancreatic elastase) 1.0; No Inhibitor 0.104
T1 construct: A crude elastase preparation is made by homogenizing human leukocyte granules; from tissue; host or cells: human leukocyte granules (homogenized, supernatant dialyzed; crude preparation)
T1 sequence (P08246 30-247 limits assumed): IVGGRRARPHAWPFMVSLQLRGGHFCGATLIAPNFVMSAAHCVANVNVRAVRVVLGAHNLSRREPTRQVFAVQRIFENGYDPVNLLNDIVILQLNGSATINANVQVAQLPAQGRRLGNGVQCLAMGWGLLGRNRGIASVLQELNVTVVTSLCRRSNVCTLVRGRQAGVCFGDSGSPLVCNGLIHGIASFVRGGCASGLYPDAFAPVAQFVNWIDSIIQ
Experimental: (§1) The compound N-[[5-chloro-2-benzothiazolyl)thio]-phenylacetyl]-L-cysteine is tested for human elastase inhibition in an in vitro assay which is carried out as follows:
(§2) A crude elastase preparation is made by homogenizing human leukocyte granules [prepared according to the method of R. J. Baryk and J. Travis, Biochemistry, 15, (4), 837 (1976)], spinning and dialyzing the supernates against cold 0.05 M trisHCl/0.05 M Na Cl at a pH 8.0.
(§3) This elastase preparation is used in two assay methods to test for elastase inhibition.
In this method, the substrate used is an elastin-Congo red complex. Hydrolysis of this substrate by elastase releases Congo red, which is assayed by HPLC. The assay system also contains buffer and either 20 μg of the compound of Example 1, or no compound. The system is incubated at 37° C. for 18 hours. The standard sample represents the complete hydrolysis of the elastin-Congo red complex by hog pancreatic elastase.

[2] = target: Collagenase produced by normal human leukocytes or by normal human skin fibroblasts; assay: in vitro collagenase inhibition assay (14C-acetylated collagen hydrolysis); conditions: pH 7.4, 35° C., one to five hours
Experimental: The compound N-[[(5-chloro-2-benzothiazolyl)thio]-phenylacetyl]-L-cysteine is tested for collagenase inhibition in an in vitro assay based on the procedure described by A. Sellers and J.J. Reynolds, Biochem. J., 167 (1977) pp. 353-60.
Collagenase produced by normal human leukocytes or by normal human skin fibroblasts in cell cultures is purified by adsorption onto a collagen Sepharose 4B column. Prior to use in the assay, the zymogen is activated with trypsin, while the trypsin in turn, is inactivated with an excess of soybean trypsin inhibitor.
According to the assay procedure, microfuge tubes are prepared containing a total of about 150 μl. of solution containing: 25 μl. collagen (^14 C-acetylated collagen--2 mg./ml in 0.01% acetic acid); 25 μl. of 0.15 M tris/0.015 M CaCl2, pH 7.4; 75 μl. collagenase in tris buffer (0.05 M tris/0.005 M CaCl2, pH 7.4); and 25 μl. of collagenase inhibitor in tris buffer. Samples and controls are incubated at 35° C. for one to five hours depending upon potency of the enzyme. At the end of the reaction period, the tubes are spun down in a Beckman Microfuge. A 25 μl. aliquot of each tube is then assayed in a scintillation counter. Since native collagen forms insoluble fibrils under these conditions, radioactivity detected in the supernate is a measure of collagen hydrolysis. […]

[3] = target: T1, human leukocyte elastase; assay: human elastase inhibition in vitro assay, Method 1 (succinyl-L-alanyl-L-alanyl-L-alanyl-p-nitroanilide substrate)
Experimental: as §1, §2, §3
400 μl of the elastase preparation, 10 μl (0.0625 mg) of succinyl-L-alanyl-L-alanyl-L-alanyl-p-nitroanilide (the enzyme substrate), 207 μl of buffer and varying amounts of the elastase inhibitor under testing are incubated at 37° C. for 19 hours. The hydrolysis is measured by use of high pressure liquid chromatography (HPLC) or by the spectrophotometric measurement of the release of p-nitroaniline at a wavelength of 410 nm.

Relative Release of Congo Red [1]: 0.000 | IC50 ([2]; Experiment 1: Collagen I as substrate): 5.7 µM | IC50 ([2]; Experiment 2: Collagen II as substrate): 12.5 µM | IC50 ([3]; 37° C., 19 hours, HPLC or 410 nm): 4.78 µM | inhibitory effect on the enzymatic activity of human leukocyte elastase (in words) ([3]; conclusion from Methods 1 and 2): strong inhibitory effect
Structure (SMILES): O=C(N[C@@H](CS)C(=O)O)C(Sc1nc2cc(Cl)ccc2s1)c1ccccc1 (stereo partly drawn) [Example 1, N-[[(5-chloro-2-benzothiazolyl)thio]phenylacetyl]-L-cysteine]
